Assay results from ChEMBL document CHEMBL5500400, “Design and Discovery of a Potent and Selective Inhibitor of Integrin αvβ1” (J Med Chem, 2024).

Tests used:
Integrin alpha-V/beta-1 [1] = molecular target: T1, Integrin alpha-V/beta-1 (Homo sapiens, UniProt P05556+P06756); test: Inhibition of recombinant human Integrin alphaVbeta1 using TMB as substrate incubated for 2 hrs in presence of fibronectin by ELISA; format: protein-complex assay
[2] = Apparent permeability across apical to basolateral side in dog MDCK-MDR1 cells incubated for 60 mins by HPLC analysis; format: ADME, cell-based, Canis lupus familiaris
[3] = Apparent permeability across basolateral to apical side in dog MDCK-MDR1 cells incubated for 60 mins by HPLC analysis; format: ADME, cell-based, Canis lupus familiaris
Integrin alpha-V/beta-1 [4] = molecular target: T1, Integrin alpha-V/beta-1; test: Inhibition of recombinant human Integrin alphaVbeta1 mediated cellular adhesion expressed in CHO-B2 cell incubated for 24 hrs in presence of Ca2+ and Mg2+ by real-time cell analysis; format: cell-based
Integrin alpha-4/beta-1 = Integrin alpha-4/beta-1 (Homo sapiens, UniProt P05556+P13612); test: Inhibition of Integrin alpha4beta1 mediated cellular adhesion in human Jurkat cells incubated for 24 hrs in presence of Ca2+ and Mg2+ by real-time cell analysis; format: cell-based
Integrin alpha-5/beta-1 = Integrin alpha-5/beta-1 (Homo sapiens, UniProt P05556+P08648); test: Inhibition of Integrin alpha5beta1 mediated cellular adhesion in human HCT-116 cells incubated for 24 hrs in presence of Ca2+ and Mg2+ by real-time cell analysis; format: cell-based
Integrin alpha-8/beta-1 = Integrin alpha-8/beta-1 (Homo sapiens, UniProt P05556+P53708); test: Inhibition of recombinant human Integrin alpha8beta1 mediated cellular adhesion expressed in HEK cells incubated for 24 hrs in presence of Ca2+ and Mg2+ by real-time cell analysis; format: cell-based
Integrin alpha-V/beta-3 = Integrin alpha-V/beta-3 (Homo sapiens, UniProt P05106+P06756); test: Inhibition of recombinant human Integrin alphaVbeta3 mediated cellular adhesion expressed in HEK cells incubated for 24 hrs in presence of Ca2+ and Mg2+ by real-time cell analysis; format: cell-based
Integrin alpha-V/beta-1 [5] = molecular target: T1, Integrin alpha-V/beta-1; test: Inhibition of human Integrin alphaVbeta1 expressed in CHO-B2 cell cocultured with TGF-beta expressing Mv1Lu cells assessed as inhibition of integrin alphaVbeta1 mediated TGF-beta transactivation by luciferase assay; format: cell-based
Integrin alpha-V/beta-6 = Integrin alpha-V/beta-6 (Homo sapiens, UniProt P06756+P18564); test: Inhibition of human Integrin alphaVbeta6 expressed in SW480 cells cocultured with TGF-beta expressing Mv1Lu cells assessed as inhibition of integrin alphaVbeta6 mediated TGF-beta transactivation by luciferase assay; format: cell-based
Integrin alpha-V/beta-8 = Integrin alpha-V/beta-8 (Homo sapiens, UniProt P06756+P26012); test: Inhibition of Integrin alphaVbeta8 in human SNB-19 cells cocultured with TGF-beta expressing Mv1Lu cells assessed as inhibition of integrin alphaVbeta8 mediated TGF-beta transactivation by luciferase assay; format: cell-based
[6] = Half life in Wistar-Han rat at 1 mg/kg,iv administration; format: ADME, organism-based; conditions: in vivo
[7] = Clearance in Wistar-Han rat at 1 mg/kg,iv administration; format: ADME, organism-based; conditions: in vivo
[8] = AUC (0 to 24 hrs) in Wistar-Han rat at 1 mg/kg,iv administration; format: ADME, organism-based; conditions: in vivo
[9] = AUC (0 to infinity) in Wistar-Han rat at 1 mg/kg,iv administration; format: ADME, organism-based; conditions: in vivo
[10] = Volume of distribution at steady state in Wistar-Han rat at 1 mg/kg,iv administration; format: ADME, organism-based; conditions: in vivo, read-out: Vdss
[11] = Half life in Sprague-Dawley rat at 30 mg/kg,sc administration; format: ADME, organism-based; conditions: in vivo
[12] = Tmax in Sprague-Dawley rat at 30 mg/kg,sc administration; format: ADME, organism-based; conditions: in vivo
[13] = Cmax in Sprague-Dawley rat at 30 mg/kg,sc administration; format: ADME, organism-based; conditions: in vivo
[14] = AUC (0 to 24 hrs) in Sprague-Dawley rat at 30 mg/kg,sc administration; format: ADME, organism-based; conditions: in vivo
[15] = AUC (0 to infinity) in Sprague-Dawley rat at 30 mg/kg,sc administration; format: ADME, organism-based; conditions: in vivo
[16] = Bioavailability in Sprague-Dawley rat at 30 mg/kg,sc administration; format: ADME, organism-based; conditions: in vivo
[17] = Half life in Wistar rat at 10 mg/kg,po administration; format: ADME, organism-based; conditions: in vivo
[18] = Tmax in Wistar rat at 10 mg/kg,po administration; format: ADME, organism-based; conditions: in vivo
[19] = Cmax in Wistar rat at 10 mg/kg,po administration; format: ADME, organism-based; conditions: in vivo
[20] = AUC (0 to 24 hrs) in Wistar rat at 10 mg/kg,po administration; format: ADME, organism-based; conditions: in vivo
[21] = AUC (0 to infinity) in Wistar rat at 10 mg/kg,po administration; format: ADME, organism-based; conditions: in vivo
[22] = Oral bioavailability in Wistar rat at 10 mg/kg administration; format: ADME, organism-based; conditions: in vivo
Rattus norvegicus = test: Antifibrotic activity against choline-deficient high-fat diet induced Wistar-Han rat liver fibrosis model assessed as reduction in liver fibrosis at sc administration for 6 weeks from period of week 7 to 12 during high-fat diet treatment by picrosirius red staining based analysis; format: functional, organism-based
[23] = Drug concentration in choline-deficient high-fat diet induced Wistar-Han rat plasma at sc administration for 6 weeks from period of week 7 to 12 during high-fat diet treatment; format: ADME, organism-based; conditions: in vivo, 1008 h
[24] = Drug concentration in choline-deficient high-fat diet induced Wistar-Han rat liver at sc administration for 6 weeks from period of week 7 to 12 during high-fat diet treatment; format: ADME, organism-based; conditions: in vivo, 1008 h

T1 sequence (P05556 21-798 limits assumed): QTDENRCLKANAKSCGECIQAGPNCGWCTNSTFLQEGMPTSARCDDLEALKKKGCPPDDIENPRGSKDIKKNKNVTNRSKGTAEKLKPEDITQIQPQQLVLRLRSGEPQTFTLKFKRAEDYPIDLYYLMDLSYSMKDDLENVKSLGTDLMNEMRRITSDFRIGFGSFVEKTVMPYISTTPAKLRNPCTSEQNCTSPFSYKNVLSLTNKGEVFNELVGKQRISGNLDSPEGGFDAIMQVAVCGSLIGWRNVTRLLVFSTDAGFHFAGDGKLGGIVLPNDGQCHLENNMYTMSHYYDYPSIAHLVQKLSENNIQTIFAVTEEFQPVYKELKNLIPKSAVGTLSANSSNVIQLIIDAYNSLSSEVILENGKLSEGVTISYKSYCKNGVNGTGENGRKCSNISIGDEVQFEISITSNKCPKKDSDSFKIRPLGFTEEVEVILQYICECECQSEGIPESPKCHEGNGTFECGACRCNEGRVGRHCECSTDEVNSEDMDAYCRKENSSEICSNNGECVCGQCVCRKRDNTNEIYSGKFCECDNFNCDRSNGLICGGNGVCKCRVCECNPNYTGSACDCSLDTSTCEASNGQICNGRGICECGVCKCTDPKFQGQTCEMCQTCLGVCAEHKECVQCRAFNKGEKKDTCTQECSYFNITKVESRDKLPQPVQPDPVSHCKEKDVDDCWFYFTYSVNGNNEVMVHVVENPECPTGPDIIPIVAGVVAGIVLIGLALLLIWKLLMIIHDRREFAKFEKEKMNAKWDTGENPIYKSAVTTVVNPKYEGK
T1 sequence (P06756 31-889 limits assumed): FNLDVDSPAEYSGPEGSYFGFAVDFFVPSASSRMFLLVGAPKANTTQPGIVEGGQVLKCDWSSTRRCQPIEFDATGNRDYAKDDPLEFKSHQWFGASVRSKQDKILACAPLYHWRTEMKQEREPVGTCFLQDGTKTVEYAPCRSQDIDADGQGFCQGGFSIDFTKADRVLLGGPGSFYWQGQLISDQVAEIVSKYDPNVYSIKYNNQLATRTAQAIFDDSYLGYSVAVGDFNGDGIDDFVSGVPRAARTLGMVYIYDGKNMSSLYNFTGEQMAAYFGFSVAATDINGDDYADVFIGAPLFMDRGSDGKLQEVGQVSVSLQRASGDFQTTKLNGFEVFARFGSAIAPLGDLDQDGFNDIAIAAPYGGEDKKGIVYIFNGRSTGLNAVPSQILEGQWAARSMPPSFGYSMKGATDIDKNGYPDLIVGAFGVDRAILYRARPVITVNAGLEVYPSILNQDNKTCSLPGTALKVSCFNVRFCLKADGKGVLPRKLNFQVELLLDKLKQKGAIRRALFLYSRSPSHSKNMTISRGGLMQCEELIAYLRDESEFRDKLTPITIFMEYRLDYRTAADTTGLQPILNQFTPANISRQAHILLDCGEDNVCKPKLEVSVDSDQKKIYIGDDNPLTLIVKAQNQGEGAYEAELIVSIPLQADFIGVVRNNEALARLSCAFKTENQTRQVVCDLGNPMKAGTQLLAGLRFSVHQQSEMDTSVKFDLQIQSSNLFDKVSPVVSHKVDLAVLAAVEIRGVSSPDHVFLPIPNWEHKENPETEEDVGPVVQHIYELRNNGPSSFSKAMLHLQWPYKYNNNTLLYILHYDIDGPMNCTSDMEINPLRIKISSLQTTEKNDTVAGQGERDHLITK
T1 sequence (P06756 891-1048 limits assumed): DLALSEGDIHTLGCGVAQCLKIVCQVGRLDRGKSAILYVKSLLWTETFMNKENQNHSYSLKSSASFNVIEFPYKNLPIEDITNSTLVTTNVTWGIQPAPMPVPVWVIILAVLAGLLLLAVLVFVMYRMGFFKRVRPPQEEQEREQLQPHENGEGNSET
Integrin alpha-V/beta-3, sequence (P05106 27-788 limits assumed): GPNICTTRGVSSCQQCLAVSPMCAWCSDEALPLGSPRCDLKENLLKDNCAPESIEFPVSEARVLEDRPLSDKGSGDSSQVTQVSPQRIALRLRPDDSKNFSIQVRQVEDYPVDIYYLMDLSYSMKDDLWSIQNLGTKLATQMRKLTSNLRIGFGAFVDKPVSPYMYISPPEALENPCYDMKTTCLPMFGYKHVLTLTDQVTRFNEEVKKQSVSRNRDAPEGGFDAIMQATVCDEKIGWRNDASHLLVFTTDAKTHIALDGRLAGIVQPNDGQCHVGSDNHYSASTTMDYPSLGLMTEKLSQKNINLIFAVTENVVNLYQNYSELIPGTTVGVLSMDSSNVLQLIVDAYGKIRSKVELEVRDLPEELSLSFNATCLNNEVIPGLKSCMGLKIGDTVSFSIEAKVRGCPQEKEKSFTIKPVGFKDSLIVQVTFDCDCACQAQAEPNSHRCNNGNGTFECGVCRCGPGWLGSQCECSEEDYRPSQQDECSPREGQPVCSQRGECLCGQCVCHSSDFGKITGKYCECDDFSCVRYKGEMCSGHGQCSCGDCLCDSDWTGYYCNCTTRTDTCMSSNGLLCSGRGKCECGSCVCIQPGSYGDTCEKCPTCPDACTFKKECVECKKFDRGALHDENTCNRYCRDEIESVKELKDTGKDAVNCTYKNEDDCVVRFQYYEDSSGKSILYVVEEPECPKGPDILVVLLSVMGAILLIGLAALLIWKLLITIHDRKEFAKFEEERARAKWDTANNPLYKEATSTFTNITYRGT
Integrin alpha-V/beta-3, sequence (P06756 31-889 limits assumed): as the sequence (P06756 31-889 limits assumed) above
Integrin alpha-V/beta-3, sequence (P06756 891-1048 limits assumed): as the sequence (P06756 891-1048 limits assumed) above
Integrin alpha-4/beta-1, sequence (P05556 whole entry): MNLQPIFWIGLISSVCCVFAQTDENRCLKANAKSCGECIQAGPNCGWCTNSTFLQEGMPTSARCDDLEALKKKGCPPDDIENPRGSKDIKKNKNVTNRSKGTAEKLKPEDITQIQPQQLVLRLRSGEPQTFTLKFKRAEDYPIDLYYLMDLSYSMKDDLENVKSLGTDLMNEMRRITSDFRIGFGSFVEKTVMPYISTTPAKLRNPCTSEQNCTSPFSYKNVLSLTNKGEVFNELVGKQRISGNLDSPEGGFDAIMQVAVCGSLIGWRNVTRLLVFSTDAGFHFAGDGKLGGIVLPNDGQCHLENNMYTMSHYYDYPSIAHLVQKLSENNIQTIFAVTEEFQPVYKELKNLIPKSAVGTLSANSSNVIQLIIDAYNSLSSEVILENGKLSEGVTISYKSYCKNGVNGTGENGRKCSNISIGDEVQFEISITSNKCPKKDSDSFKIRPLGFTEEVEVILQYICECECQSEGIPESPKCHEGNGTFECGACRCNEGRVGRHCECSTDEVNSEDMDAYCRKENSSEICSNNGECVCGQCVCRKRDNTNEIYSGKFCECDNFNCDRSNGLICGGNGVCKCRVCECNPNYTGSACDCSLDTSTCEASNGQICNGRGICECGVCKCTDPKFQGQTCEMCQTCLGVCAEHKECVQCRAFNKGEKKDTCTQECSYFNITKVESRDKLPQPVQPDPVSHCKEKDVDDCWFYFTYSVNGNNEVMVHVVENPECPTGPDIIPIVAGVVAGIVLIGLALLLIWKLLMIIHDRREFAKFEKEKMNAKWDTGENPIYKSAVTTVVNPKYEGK
Integrin alpha-4/beta-1, sequence (P13612 whole entry): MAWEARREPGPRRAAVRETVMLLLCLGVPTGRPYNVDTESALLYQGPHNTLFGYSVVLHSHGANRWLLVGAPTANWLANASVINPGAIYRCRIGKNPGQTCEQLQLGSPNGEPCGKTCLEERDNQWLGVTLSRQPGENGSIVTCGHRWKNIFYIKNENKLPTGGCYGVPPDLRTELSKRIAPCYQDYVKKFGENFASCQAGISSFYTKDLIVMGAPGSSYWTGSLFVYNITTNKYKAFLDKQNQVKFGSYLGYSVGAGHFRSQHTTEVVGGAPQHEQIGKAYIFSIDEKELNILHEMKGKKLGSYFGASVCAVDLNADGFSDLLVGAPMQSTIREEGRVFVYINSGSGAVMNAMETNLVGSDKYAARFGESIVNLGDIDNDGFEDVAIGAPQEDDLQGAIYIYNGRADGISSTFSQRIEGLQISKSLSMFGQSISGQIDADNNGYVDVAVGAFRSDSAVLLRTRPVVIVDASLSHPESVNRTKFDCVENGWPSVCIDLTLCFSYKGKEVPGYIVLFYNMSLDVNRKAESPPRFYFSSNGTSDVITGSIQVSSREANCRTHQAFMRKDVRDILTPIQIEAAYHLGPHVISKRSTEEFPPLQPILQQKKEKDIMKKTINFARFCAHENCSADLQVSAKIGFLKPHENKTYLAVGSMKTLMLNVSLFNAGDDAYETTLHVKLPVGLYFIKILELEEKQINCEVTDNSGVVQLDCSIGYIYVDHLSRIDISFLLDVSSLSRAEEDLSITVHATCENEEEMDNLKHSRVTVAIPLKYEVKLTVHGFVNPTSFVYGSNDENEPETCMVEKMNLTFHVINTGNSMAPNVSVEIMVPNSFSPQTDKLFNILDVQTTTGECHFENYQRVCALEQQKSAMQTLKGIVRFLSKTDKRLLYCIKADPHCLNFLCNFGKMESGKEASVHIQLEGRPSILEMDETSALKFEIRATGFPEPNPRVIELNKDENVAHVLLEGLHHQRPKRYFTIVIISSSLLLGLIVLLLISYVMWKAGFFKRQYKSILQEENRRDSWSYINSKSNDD

`Cc1ccc(Cl)c(C(=O)N[C@@H](CNC(=O)Cn2c(=O)[nH]c3nc(C)c(F)cc32)C(=O)O)c1F` gave an IC50 (Integrin alpha-V/beta-1 [1]) of 0.000316 µM, a Papp A→B at 1 h [2] of 3 ×10⁻⁶ cm/s and a Papp B→A at 1 h [3] of 3.2 ×10⁻⁶ cm/s. The IC50 (Integrin alpha-V/beta-1 [4]) was 0.427 µM, the IC50 (Integrin alpha-4/beta-1) was greater than 31.6 µM and the IC50 (Integrin alpha-5/beta-1) was greater than 31.6 µM. It also gave an IC50 (Integrin alpha-8/beta-1) greater than 31.6 µM, an IC50 (Integrin alpha-V/beta-3) greater than 10 µM and an IC50 (Integrin alpha-V/beta-1 [5]) of 0.0437 µM. It also gave an IC50 (Integrin alpha-V/beta-6) greater than 10 µM, an IC50 (Integrin alpha-V/beta-8) of 9.55 µM and a half-life [6] of 3.32 h. It also gave a clearance [7] of 0.38 mL/min/kg, an AUC(0-t) [8] of 44000 ng·h/mL and an AUC(0-inf) [9] of 44000 ng·h/mL. For the same molecule, the Vd [10] was 0.087 L/kg, the half-life [11] was 3.3 h and the Tmax [12] was 4.7 h. For the same molecule, the Cmax [13] was 66000 ng/mL, the AUC(0-t) [14] was 630000 ng·h/mL and the AUC(0-inf) [15] was 630000 ng·h/mL. The bioavailability [16] was 59%, the half-life [17] was 5.2 h and the Tmax [18] was 2.8 h. For the same molecule, the Cmax [19] was 390 ng/mL, the AUC(0-t) [20] was 4500 ng·h/mL and the AUC(0-inf) [21] was 4800 ng·h/mL. For the same molecule, the bioavailability [22] was 1.3%, the Activity (Rattus norvegicus) was “Dose-Dependent Effect” and the Drug uptake [23] was “Dose-Dependent Effect”. For the same molecule, the Drug uptake [24] was “Dose-Dependent Effect”.
